Experimental data from ChEMBL document CHEMBL1201862, “PubChem BioAssay data set” (2004).
“And” between values parts separate entries of the source, which are not always exact repeats. Equal entries are not always repeated.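 A five-concentration, 48-hour dose response in 96-well plates underlies each endpoint, interpolated linearly between surrounding concentrations. The concentration for 50% growth inhibition is given as GI50.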 The source made the active and inactive calls. No stated cut-off is given here; in the data, active = GI50 up to about 1.1 µM and inactive = higher.

Columns and labels:
Assay in all cases: NCI-60 cell line screen, 48 h
SF-295 = test system: SF-295
SK-MEL-2 = test system: SK-MEL-2
SF-539 = test system: SF-539
HCT-116 = test system: HCT-116
NCI/ADR-RES = test system: NCI/ADR-RES
SK-MEL-28 = test system: SK-MEL-28
T47D = test system: T47D
HOP-92 = test system: HOP-92
SNB-75 = test system: SNB-75
OVCAR-4 = test system: OVCAR-4
NCI-H226 = test system: NCI-H226
SN12C = test system: SN12C
COLO 205 = test system: COLO 205
DU-145 = test system: DU-145
OVCAR-8 = test system: OVCAR-8
CCRF-CEM = test system: CCRF-CEM
SR = test system: SR
SK-MEL-5 = test system: SK-MEL-5
SW-620 = test system: SW-620
SK-OV-3 = test system: SK-OV-3

Row | SMILES | GI50 (SF-295) | GI50 (SK-MEL-2) | GI50 (SF-539) | GI50 (HCT-116) | GI50 (NCI/ADR-RES) | GI50 (SK-MEL-28) | GI50 (T47D) | GI50 (HOP-92) | GI50 (SNB-75) | GI50 (OVCAR-4) | GI50 (NCI-H226) | GI50 (SN12C) | GI50 (COLO 205) | GI50 (DU-145) | GI50 (OVCAR-8) | GI50 (CCRF-CEM) | GI50 (SR) | GI50 (SK-MEL-5) | GI50 (SW-620) | GI50 (SK-OV-3)
1 | Cc1cc(C)c(O)c(CN2CCN(C(C)C)CCN(C(C)C)CC2)c1 | 15.7 µM (inactive) | 37.8 µM (inactive) | 10.4 µM (inactive) | 7.41 µM (inactive) | 25.9 µM (inactive) | 24.7 µM (inactive) | 22 µM (inactive) | 13.7 µM (inactive) | 33.7 µM (inactive) | 46.6 µM (inactive) | 12 µM (inactive) | 27.5 µM (inactive) | 18.6 µM (inactive) | 85.7 µM (inactive) | 22.2 µM (inactive) | 19.1 µM (inactive) | 17.9 µM (inactive) | > 10 µM (inactive) | 42.8 µM (inactive) | 
2 | CN(C(=O)Nc1ccc(Cl)c(Cl)c1)C1CCCC[C@@H]1N1CCCC1 (some centres undefined) | 84.7 µM (inactive) | 38.3 µM (inactive) |  | 51.8 µM (inactive) | 72.4 µM (inactive) | 21.7 µM (inactive) | 39.6 µM (inactive) | 34.4 µM (inactive) | 40.2 µM (inactive) | 41.9 µM (inactive) | 0.092 µM (active) | > 100 µM (inactive) | 18.1 µM (inactive) | 58.6 µM (inactive) | 79.3 µM (inactive) | 30.5 µM (inactive) | 21 µM (inactive) | 16.3 µM (inactive) | 63.7 µM (inactive) | > 100 µM (inactive)
3 | Cc1cc(C(O)CNC(C)CCn2cnc3c2c(=O)n(C)c(=O)n3C)ccc1O (centres undefined) | > 100 µM (inactive) | > 100 µM (inactive) | > 100 µM (inactive) | > 100 µM (inactive) | > 100 µM (inactive) | > 100 µM (inactive) | > 100 µM (inactive) | > 100 µM (inactive) | > 100 µM (inactive) | > 100 µM (inactive) | > 100 µM (inactive) | > 100 µM (inactive) | > 100 µM (inactive) | > 100 µM (inactive) | > 100 µM (inactive) | > 100 µM (inactive) | > 100 µM (inactive) | > 100 µM (inactive) | > 100 µM (inactive) | > 100 µM (inactive)
4 | C=C(Cl)C(Cl)(CBr)CCC(Br)C(C)(C)Cl (centres undefined) | 1.79 µM (inactive) and 1.65 µM (inactive) and 1.35 µM (inactive) | 1.31 µM (inactive) | 1.95 µM (inactive) and 446 nM (active) and 1.27 µM (inactive) | 508 nM (active) and 1.95 µM (inactive) and 448 nM (active) | 12 µM (inactive) and 2.44 µM (inactive) and 1.83 µM (inactive) | 1.73 µM (inactive) and 11.5 µM (inactive) and 2.28 µM (inactive) | 3.37 µM (inactive) and 416 nM (active) and 973 nM (active) | 2.63 µM (inactive) and 1.42 µM (inactive) and 1.35 µM (inactive) | 1.64 µM (inactive) and 834 nM (active) and 416 nM (active) | 2.92 µM (inactive) and 1.6 µM (inactive) and 10.7 µM (inactive) | 18.2 µM (inactive) and 17.5 µM (inactive) and 16 µM (inactive) | 14.7 µM (inactive) and 4.2 µM (inactive) and 6.62 µM (inactive) | 1.72 µM (inactive) and 2.95 µM (inactive) and 14.5 µM (inactive) | 2.76 µM (inactive) and 1.38 µM (inactive) | 6.25 µM (inactive) and 2.03 µM (inactive) and 1.26 µM (inactive) | 5.08 µM (inactive) and 12.5 µM (inactive) and 4.5 µM (inactive) | 11.5 µM (inactive) and 4.53 µM (inactive) and 15 µM (inactive) | 14.9 µM (inactive) and 12.7 µM (inactive) and 12.4 µM (inactive) | 1.91 µM (inactive) and 12.2 µM (inactive) and 1.52 µM (inactive) | 2.36 µM (inactive) and 27.2 µM (inactive)
5 | COC(=O)c1ccc(C)cc1C1CN=NC12Cc1cccc(C)c1C2=O (centres undefined) | 50 µM (inactive) | 23.8 µM (inactive) | 90.4 µM (inactive) | 42.3 µM (inactive) | 25.4 µM (inactive) | 30.7 µM (inactive) | 24.9 µM (inactive) | 36.9 µM (inactive) | 34.2 µM (inactive) | 26.5 µM (inactive) | 25.1 µM (inactive) | 52.7 µM (inactive) | 30.5 µM (inactive) | 65.2 µM (inactive) | 21.1 µM (inactive) | 31.6 µM (inactive) | 82.8 µM (inactive) | 22.2 µM (inactive) | 57.7 µM (inactive) | 90.4 µM (inactive)
6 | N#Cc1cc2c(cc1C#N)SCCSCCCSCCS2 | 5.47 µM (inactive) | 17.8 µM (inactive) | 10.4 µM (inactive) | 21.3 µM (inactive) | 30.5 µM (inactive) | > 100 µM (inactive) | 32.4 µM (inactive) | 2.49 µM (inactive) | 4.61 µM (inactive) | 8.93 µM (inactive) | 41.1 µM (inactive) | 41.9 µM (inactive) | > 84.3 µM (inactive) | 56.5 µM (inactive) | 12.2 µM (inactive) | > 48.3 µM (inactive) | 36.4 µM (inactive) | > 100 µM (inactive) | 29.4 µM (inactive) | 12 µM (inactive)
7 | CCC(=O)O[C@H]1CC[C@H]2[C@@H]3CCC4=C/C(=N/OC(=O)c5cccc6cc7ccccc7nc56)CC[C@]4(C)[C@H]3CC[C@]12C |  | 55.2 µM (inactive) | 43.4 µM (inactive) | 36.1 µM (inactive) | 60.4 µM (inactive) | 90.2 µM (inactive) | 21.9 µM (inactive) | > 100 µM (inactive) | 83.8 µM (inactive) | 76 µM (inactive) | > 100 µM (inactive) | > 100 µM (inactive) | 41 µM (inactive) | > 100 µM (inactive) | 42.3 µM (inactive) | 41.2 µM (inactive) | 67.9 µM (inactive) | 15.2 µM (inactive) | 65.8 µM (inactive) | > 100 µM (inactive)
8 | CCOc1cc(CCNC)c2c(ccc3ccc(OC)c(O)c32)c1OC | 16.2 µM (inactive) | 14.2 µM (inactive) |  | 10.4 µM (inactive) | 19.2 µM (inactive) | 17.9 µM (inactive) | 21.7 µM (inactive) | 12.1 µM (inactive) | 16 µM (inactive) | 13.7 µM (inactive) | 17.9 µM (inactive) | 16.1 µM (inactive) | 19 µM (inactive) | 15.2 µM (inactive) | 13.6 µM (inactive) | 14.9 µM (inactive) | 4.44 µM (inactive) | 11.8 µM (inactive) |  | 14.4 µM (inactive)
9 | CCC(CC)C(=O)OC[n+]1cccc(-c2c(COC(=O)NC(C)C)c(COC(=O)NC(C)C)c3n2CCC3)c1 | > 100 µM (inactive) | > 100 µM (inactive) | 68.7 µM (inactive) | > 100 µM (inactive) | 63.2 µM (inactive) | > 100 µM (inactive) | > 100 µM (inactive) | 72.3 µM (inactive) | > 100 µM (inactive) | > 100 µM (inactive) | > 100 µM (inactive) | 58.2 µM (inactive) | > 100 µM (inactive) | > 100 µM (inactive) | > 100 µM (inactive) | 38.4 µM (inactive) | 5.87 µM (inactive) | > 100 µM (inactive) | > 100 µM (inactive) | > 100 µM (inactive)
10 | O=C(NNC(=S)Nc1ccccc1)C12CC3CC(CC(C3)C1)C2 | 11.4 µM (inactive) | 22.1 µM (inactive) | 25.8 µM (inactive) | 13.6 µM (inactive) | 15.5 µM (inactive) | 21.9 µM (inactive) | 27.6 µM (inactive) | 30.1 µM (inactive) | 29.4 µM (inactive) | 29.2 µM (inactive) | 26.7 µM (inactive) | 24.5 µM (inactive) | 20.7 µM (inactive) | 28.6 µM (inactive) | 21.7 µM (inactive) | 6.92 µM (inactive) | 0.252 µM (active) | 8.53 µM (inactive) | 24.2 µM (inactive) | 41.4 µM (inactive)
11 | C[C@]12CC[C@H](O)CC1=CC[C@@H]1[C@@H]2CC[C@]2(C)C(=N/O)/C(=C/c3ccc([N+](=O)[O-])cc3)C[C@@H]12 | 0.45 µM (active) | 4.53 µM (inactive) | 4.09 µM (inactive) | 3.93 µM (inactive) | 6.03 µM (inactive) | 5.9 µM (inactive) | 2.48 µM (inactive) | 3.29 µM (inactive) | 4.32 µM (inactive) | 5.33 µM (inactive) | 1.16 µM (inactive) | 3.08 µM (inactive) | 3.53 µM (inactive) | 6.73 µM (inactive) | 2.82 µM (inactive) | 5.94 µM (inactive) | 2.51 µM (inactive) | 1.18 µM (inactive) | 9.86 µM (inactive) | 0.403 µM (active)
12 | CCN(CC)CCNc1ccc2nnn3c4ccc(O)cc4c(=O)c1c23 | 2.35 µM (inactive) | 11.3 µM (inactive) | 1.71 µM (inactive) | 0.935 µM (active) | 1.47 µM (inactive) | 11.4 µM (inactive) | 18.5 µM (inactive) | 4.35 µM (inactive) | 2.07 µM (inactive) | 2.64 µM (inactive) | 3.35 µM (inactive) | 1.64 µM (inactive) | 1.84 µM (inactive) | 14.3 µM (inactive) | 1.49 µM (inactive) | 0.586 µM (active) | 0.06 µM (active) | 1.64 µM (inactive) | 0.583 µM (active) | 8.22 µM (inactive)
13 | N#Cc1nc(-c2cc([N+](=O)[O-])cc([N+](=O)[O-])c2)oc1N | > 10 µM (inactive) |  | > 10 µM (inactive) | > 10 µM (inactive) | > 10 µM (inactive) | > 10 µM (inactive) | > 10 µM (inactive) | > 10 µM (inactive) | > 10 µM (inactive) | > 10 µM (inactive) | > 10 µM (inactive) | > 10 µM (inactive) | > 10 µM (inactive) | > 10 µM (inactive) | > 10 µM (inactive) | > 10 µM (inactive) | > 10 µM (inactive) | > 10 µM (inactive) | > 10 µM (inactive) | > 10 µM (inactive)
